# Results taken from patent US20080058213A1, “Benzoxazole Compounds” (priority 2004, published 2008).
# Assays:
# Type in all cases: in vivo
# southern crabgrass = experiment: Foliage treatment test for upland field (Test Example 3): southern crabgrass; conditions: foliage treatment at 1.0-2.0 leaf stage of southern crabgrass, examined after 3 weeks
# Excerpt: (§1) Evaluation of the herbicidal effect is shown in the following six grades, by comparing the condition of untreated control and growth inhibition (%): • 0: 0%-less than 20% • 1: 20%-less than 40% • 2: 40%-less than 60% • 3: 60%-less than 80% • 4: 80%-less than 100% • 5: 100%.
# (§2) Compost mixed soil was filled in 1/3,000 are pots, seeded with southern crabgrass, common lambsquaters, slender amaranth, common purslane, velvetleaf, wheat, corn and soybean. The seeds were covered up with the soil and cultured in a glasshouse kept at 25° C. on the average.
# (§3) Wettable powders containing the object compounds (1) as identified in Table 1, which were formulated following Preparation Example 2, were diluted with water to the prescribed dose of the active ingredient, and uniformly sprayed onto the weeds at 1.0-2.0 leaf stage of the southern crabgrass at an application water of 15 liters per are.
# (§4) After placing the test pots in a grasshouse kept at 25° C. on the average for 3 weeks, the herbicidal effect was examined.
# (§5) Evaluation of the herbicidal effect was conducted in the similar manner to Test Example 1.
# soybean [1] = experiment: Foliage treatment test for upland field (Test Example 3): phytotoxicity to soybean; conditions: foliage treatment at 1.0-2.0 leaf stage of southern crabgrass, examined after 3 weeks
# Procedure: (§6) Evaluation of phytotoxicity is shown in the following six grades, as compared with the condition of untreated control: • 0: normal growth • 1: little damaged • 2: low damaged • 3: medium damaged • 4: serious damaged • 5: complete killed.
# as §2, §4
# [2] = tested on: velvetleaf (Abutilon theophrasti); experiment: Soil treatment test for upland field (Test Example 2): velvetleaf; conditions: soil treatment before germination, examined after 3 weeks
# Excerpt: as §1
# (§7) Upland field soil was filled in 1/3,000 are pots, seeded with southern crabgrass (Digitaria ciliaris), common lambsquaters (Chenopodium album), slender amaranth (Amaranthus viridis), common purslane (Portulaca oleracea), velvetleaf (Abutilon theophrasti), wheat, corn and soybean. The seeds were covered up with the soil.
# (§8) Wettable powders containing the object compounds (1) as identified in Table 1, which were formulated following Preparation Example 2, were diluted with adequate amount of water to secure the prescribed dose of the active ingredient, and uniformly sprayed onto the surface soil layer after the seeding and before germination of the weeds, at an application water of 15 liters per are.
# (§9) After placing the test pots in a glasshouse which was kept at an average temperature of 25° C. for 3 weeks, the herbicidal effect was examined.
# (§10) Evaluations of the herbicidal effect and phytotoxicity were made in the manner similar to those in the above Test Example 1.
# corn [3] = experiment: Foliage treatment test for upland field (Test Example 3): phytotoxicity to corn; conditions: foliage treatment at 1.0-2.0 leaf stage of southern crabgrass, examined after 3 weeks
# Procedure: as §6, §2, §4
# [4] = tested on: Japanese bulrush (Scirpus juncoides); experiment: Weed control test for paddy field (Test Example 1): Japanese bulrush; conditions: paddy pots, treated at 1.0 leaf stage of barnyard grass, examined after 3 weeks
# Excerpt: (§11) Paddy field soil was filled in 1/10,000 are pots, kneaded with adequate amounts of water and chemical fertilizer, seeded with barnyard grass (Echinochloa crusgalli), Monochoria (Monochoria vaginalis), Japanese bulrush (Scirpus juncoides) and flat sedge (Cyperus serotinus), and further transplanted with 2.0 leaf stage of rice plant. The pots were maintained under the water-filled condition to a depth of 3 cm.
# (§12) Wettable powders containing the compounds (1) as identified in Table 1, which were formulated following Production Example 2, were diluted with adequate amount of water and applied to the pots dropwise with pippet at a prescribed dose of the active ingredients per are, at 1.0 leaf stage of the barnyard grass.
# (§13) After placing the pots in a glasshouse which was controlled at an average temperature of 25° C. for 3 weeks, herbicidal effect was examined.
# as §1
# [5] = tested on: common purslane (Portulaca oleracea); experiment: Soil treatment test for upland field (Test Example 2): common purslane; conditions: soil treatment before germination, examined after 3 weeks
# Excerpt: as §1, §7, §8, §9, §10
# slender amaranth = experiment: Foliage treatment test for upland field (Test Example 3): slender amaranth; conditions: foliage treatment at 1.0-2.0 leaf stage of southern crabgrass, examined after 3 weeks
# Excerpt: as §1, §2, §3, §4, §5
# corn [6] = experiment: Soil treatment test for upland field (Test Example 2): phytotoxicity to corn; conditions: soil treatment before germination, examined after 3 weeks
# Excerpt: as §6, §7, §9
# common purslane = experiment: Foliage treatment test for upland field (Test Example 3): common purslane; conditions: foliage treatment at 1.0-2.0 leaf stage of southern crabgrass, examined after 3 weeks
# Excerpt: as §1, §2, §3, §4, §5
# wheat [7] = experiment: Soil treatment test for upland field (Test Example 2): phytotoxicity to wheat; conditions: soil treatment before germination, examined after 3 weeks
# Excerpt: as §6, §7, §9
# common lambsquaters = experiment: Foliage treatment test for upland field (Test Example 3): common lambsquaters; conditions: foliage treatment at 1.0-2.0 leaf stage of southern crabgrass, examined after 3 weeks
# Excerpt: as §1, §2, §3, §4, §5
# [8] = tested on: barnyard grass (Echinochloa crusgalli); experiment: Weed control test for paddy field (Test Example 1): barnyard grass; conditions: paddy pots, treated at 1.0 leaf stage of barnyard grass, examined after 3 weeks
# Excerpt: as §11, §12, §13, §1
# [9] = tested on: common lambsquaters (Chenopodium album); experiment: Soil treatment test for upland field (Test Example 2): common lambsquaters; conditions: soil treatment before germination, examined after 3 weeks
# Excerpt: as §1, §7, §8, §9, §10
# [10] = tested on: flat sedge (Cyperus serotinus); experiment: Weed control test for paddy field (Test Example 1): flat sedge; conditions: paddy pots, treated at 1.0 leaf stage of barnyard grass, examined after 3 weeks
# Excerpt: as §11, §12, §13, §1
# wheat [11] = experiment: Foliage treatment test for upland field (Test Example 3): phytotoxicity to wheat; conditions: foliage treatment at 1.0-2.0 leaf stage of southern crabgrass, examined after 3 weeks
# Procedure: as §6, §2, §4
# [12] = tested on: Monochoria (Monochoria vaginalis); experiment: Weed control test for paddy field (Test Example 1): Monochoria; conditions: paddy pots, treated at 1.0 leaf stage of barnyard grass, examined after 3 weeks
# Excerpt: as §11, §12, §13, §1
# soybean [13] = experiment: Soil treatment test for upland field (Test Example 2): phytotoxicity to soybean; conditions: soil treatment before germination, examined after 3 weeks
# Excerpt: as §6, §7, §9
# [14] = tested on: slender amaranth (Amaranthus viridis); experiment: Soil treatment test for upland field (Test Example 2): slender amaranth; conditions: soil treatment before germination, examined after 3 weeks
# Excerpt: as §1, §7, §8, §9, §10
# velvetleaf = experiment: Foliage treatment test for upland field (Test Example 3): velvetleaf; conditions: foliage treatment at 1.0-2.0 leaf stage of southern crabgrass, examined after 3 weeks
# Excerpt: as §1, §2, §3, §4, §5
# rice plant = experiment: Weed control test for paddy field (Test Example 1): phytotoxicity to rice plant; conditions: paddy pots, treated at 1.0 leaf stage of barnyard grass, examined after 3 weeks
# Excerpt: as §11, §12, §13, §6
# [15] = tested on: southern crabgrass (Digitaria ciliaris); experiment: Soil treatment test for upland field (Test Example 2): southern crabgrass; conditions: soil treatment before germination, examined after 3 weeks
# Excerpt: as §1, §7, §8, §9, §10
compound,measurement,setting,value
CCOC/C(=C\c1cccc(C(F)(F)F)c1)c1nc2cc(Cl)ccc2o1 [Compound 11],Herbicidal Effect southern crabgrass,southern crabgrass; dose 2.5 g ai/a,5 (100%)
same,Herbicidal Effect southern crabgrass,southern crabgrass; dose 5 g ai/a,5 (100%)
same,Phytotoxicity soybean,soybean [1]; dose 2.5 g ai/a,2
same,Phytotoxicity soybean,soybean [1]; dose 5 g ai/a,1
same,Herbicidal Effect velvetleaf,[2]; dose 2.5 g ai/a,3 (60%-less than 80%)
same,Herbicidal Effect velvetleaf,[2]; dose 5 g ai/a,4 (80%-less than 100%)
same,Phytotoxicity corn,corn [3]; dose 2.5 g ai/a,2
same,Phytotoxicity corn,corn [3]; dose 5 g ai/a,1
same,Herbicidal Effect Japanese bulrush,[4]; dose 2.5 g ai/a,4 (80%-less than 100%)
same,Herbicidal Effect Japanese bulrush,[4]; dose 5 g ai/a,5 (100%)
same,Herbicidal Effect common purslane,[5]; dose 2.5 g ai/a,5 (100%)
same,Herbicidal Effect common purslane,[5]; dose 5 g ai/a,5 (100%)
same,Herbicidal Effect slender amaranth,slender amaranth; dose 2.5 g ai/a,5 (100%)
same,Herbicidal Effect slender amaranth,slender amaranth; dose 5 g ai/a,5 (100%)
same,Phytotoxicity corn,corn [6]; dose 2.5 g ai/a,1
same,Phytotoxicity corn,corn [6]; dose 5 g ai/a,1
same,Herbicidal Effect common purslane,common purslane; dose 2.5 g ai/a,5 (100%)
same,Herbicidal Effect common purslane,common purslane; dose 5 g ai/a,5 (100%)
same,Phytotoxicity wheat,wheat [7]; dose 2.5 g ai/a,0
same,Phytotoxicity wheat,wheat [7]; dose 5 g ai/a,0
same,Herbicidal Effect Common lambsquatters,common lambsquaters; dose 2.5 g ai/a,5 (100%)
same,Herbicidal Effect Common lambsquatters,common lambsquaters; dose 5 g ai/a,5 (100%)
same,Herbicidal Effect Barnyard grass,[8]; dose 2.5 g ai/a,5 (100%)
same,Herbicidal Effect Barnyard grass,[8]; dose 5 g ai/a,5 (100%)
same,Herbicidal Effect common lambsquaters,[9]; dose 2.5 g ai/a,5 (100%)
same,Herbicidal Effect common lambsquaters,[9]; dose 5 g ai/a,5 (100%)
same,Herbicidal Effect Flat sedge,[10]; dose 2.5 g ai/a,3 (60%-less than 80%)
same,Herbicidal Effect Flat sedge,[10]; dose 5 g ai/a,5 (100%)
same,Phytotoxicity wheat,wheat [11]; dose 2.5 g ai/a,1
same,Phytotoxicity wheat,wheat [11]; dose 5 g ai/a,1
same,Herbicidal Effect Monochoria vaginalis,[12]; dose 2.5 g ai/a,5 (100%)
same,Herbicidal Effect Monochoria vaginalis,[12]; dose 5 g ai/a,5 (100%)
same,Phytotoxicity soybean,soybean [13]; dose 2.5 g ai/a,0
same,Phytotoxicity soybean,soybean [13]; dose 5 g ai/a,0
same,Herbicidal Effect slender amaranth,[14]; dose 2.5 g ai/a,5 (100%)
same,Herbicidal Effect slender amaranth,[14]; dose 5 g ai/a,5 (100%)
same,Herbicidal Effect velvetleaf,velvetleaf; dose 2.5 g ai/a,5 (100%)
same,Herbicidal Effect velvetleaf,velvetleaf; dose 5 g ai/a,5 (100%)
same,Phytotoxicity Rice plant,rice plant; dose 2.5 g ai/a,1
same,Phytotoxicity Rice plant,rice plant; dose 5 g ai/a,1
same,Herbicidal Effect southern crabgrass,[15]; dose 2.5 g ai/a,5 (100%)
same,Herbicidal Effect southern crabgrass,[15]; dose 5 g ai/a,5 (100%)
COCC(=Cc1cccc(C(F)(F)F)c1)c1nc2cc(Br)ccc2o1 [Compound 39],Herbicidal Effect southern crabgrass,southern crabgrass; dose 2.5 g ai/a,4 (80%-less than 100%)
same,Herbicidal Effect southern crabgrass,southern crabgrass; dose 5 g ai/a,5 (100%)
same,Phytotoxicity soybean,soybean [1]; dose 2.5 g ai/a,1
same,Phytotoxicity soybean,soybean [1]; dose 5 g ai/a,1
same,Herbicidal Effect velvetleaf,[2]; dose 2.5 g ai/a,4 (80%-less than 100%)
same,Herbicidal Effect velvetleaf,[2]; dose 5 g ai/a,5 (100%)
same,Phytotoxicity corn,corn [3]; dose 2.5 g ai/a,0
same,Phytotoxicity corn,corn [3]; dose 5 g ai/a,1
same,Herbicidal Effect Japanese bulrush,[4]; dose 2.5 g ai/a,3 (60%-less than 80%)
same,Herbicidal Effect Japanese bulrush,[4]; dose 5 g ai/a,4 (80%-less than 100%)
same,Herbicidal Effect common purslane,[5]; dose 2.5 g ai/a,5 (100%)
same,Herbicidal Effect common purslane,[5]; dose 5 g ai/a,5 (100%)
same,Herbicidal Effect slender amaranth,slender amaranth; dose 2.5 g ai/a,5 (100%)
same,Herbicidal Effect slender amaranth,slender amaranth; dose 5 g ai/a,5 (100%)
same,Phytotoxicity corn,corn [6]; dose 2.5 g ai/a,0
same,Phytotoxicity corn,corn [6]; dose 5 g ai/a,1
same,Herbicidal Effect common purslane,common purslane; dose 2.5 g ai/a,5 (100%)
same,Herbicidal Effect common purslane,common purslane; dose 5 g ai/a,5 (100%)
same,Phytotoxicity wheat,wheat [7]; dose 2.5 g ai/a,0
same,Phytotoxicity wheat,wheat [7]; dose 5 g ai/a,0
same,Herbicidal Effect Common lambsquatters,common lambsquaters; dose 2.5 g ai/a,5 (100%)
same,Herbicidal Effect Common lambsquatters,common lambsquaters; dose 5 g ai/a,5 (100%)
same,Herbicidal Effect Barnyard grass,[8]; dose 2.5 g ai/a,5 (100%)
same,Herbicidal Effect Barnyard grass,[8]; dose 5 g ai/a,5 (100%)
same,Herbicidal Effect common lambsquaters,[9]; dose 2.5 g ai/a,5 (100%)
same,Herbicidal Effect common lambsquaters,[9]; dose 5 g ai/a,5 (100%)
same,Herbicidal Effect Flat sedge,[10]; dose 2.5 g ai/a,2 (40%-less than 60%)
same,Herbicidal Effect Flat sedge,[10]; dose 5 g ai/a,3 (60%-less than 80%)
same,Phytotoxicity wheat,wheat [11]; dose 2.5 g ai/a,0
same,Phytotoxicity wheat,wheat [11]; dose 5 g ai/a,1
same,Herbicidal Effect Monochoria vaginalis,[12]; dose 2.5 g ai/a,5 (100%)
same,Herbicidal Effect Monochoria vaginalis,[12]; dose 5 g ai/a,5 (100%)
same,Phytotoxicity soybean,soybean [13]; dose 2.5 g ai/a,0
same,Phytotoxicity soybean,soybean [13]; dose 5 g ai/a,1
same,Herbicidal Effect slender amaranth,[14]; dose 2.5 g ai/a,5 (100%)
same,Herbicidal Effect slender amaranth,[14]; dose 5 g ai/a,5 (100%)
same,Herbicidal Effect velvetleaf,velvetleaf; dose 2.5 g ai/a,4 (80%-less than 100%)
same,Herbicidal Effect velvetleaf,velvetleaf; dose 5 g ai/a,5 (100%)
same,Phytotoxicity Rice plant,rice plant; dose 2.5 g ai/a,0
same,Phytotoxicity Rice plant,rice plant; dose 5 g ai/a,0
same,Herbicidal Effect southern crabgrass,[15]; dose 2.5 g ai/a,4 (80%-less than 100%)
same,Herbicidal Effect southern crabgrass,[15]; dose 5 g ai/a,5 (100%)
